Counter-ions that a name gives are not always drawn. Like-named read-outs stand apart in the source and are kept apart here.

Among the data in patent EP0354323A2, “Antidiabetic phosphates” (AMERICAN CYANAMID COMPANY, priority 1988, dated 1990) are EC50 and IC50 values, retold here.

Holding throughout (type): biochemical
Experiment [1] concerns the target T1, purified rat liver 6-phosphofructo-1-kinase (Rattus norvegicus, UniProt P30835).
T1 construct: 0.1U of purified rat liver 6-phosphofructo-1-kinase; from tissue; host or cells: rat liver
T1 sequence (P30835 2-780 limits assumed): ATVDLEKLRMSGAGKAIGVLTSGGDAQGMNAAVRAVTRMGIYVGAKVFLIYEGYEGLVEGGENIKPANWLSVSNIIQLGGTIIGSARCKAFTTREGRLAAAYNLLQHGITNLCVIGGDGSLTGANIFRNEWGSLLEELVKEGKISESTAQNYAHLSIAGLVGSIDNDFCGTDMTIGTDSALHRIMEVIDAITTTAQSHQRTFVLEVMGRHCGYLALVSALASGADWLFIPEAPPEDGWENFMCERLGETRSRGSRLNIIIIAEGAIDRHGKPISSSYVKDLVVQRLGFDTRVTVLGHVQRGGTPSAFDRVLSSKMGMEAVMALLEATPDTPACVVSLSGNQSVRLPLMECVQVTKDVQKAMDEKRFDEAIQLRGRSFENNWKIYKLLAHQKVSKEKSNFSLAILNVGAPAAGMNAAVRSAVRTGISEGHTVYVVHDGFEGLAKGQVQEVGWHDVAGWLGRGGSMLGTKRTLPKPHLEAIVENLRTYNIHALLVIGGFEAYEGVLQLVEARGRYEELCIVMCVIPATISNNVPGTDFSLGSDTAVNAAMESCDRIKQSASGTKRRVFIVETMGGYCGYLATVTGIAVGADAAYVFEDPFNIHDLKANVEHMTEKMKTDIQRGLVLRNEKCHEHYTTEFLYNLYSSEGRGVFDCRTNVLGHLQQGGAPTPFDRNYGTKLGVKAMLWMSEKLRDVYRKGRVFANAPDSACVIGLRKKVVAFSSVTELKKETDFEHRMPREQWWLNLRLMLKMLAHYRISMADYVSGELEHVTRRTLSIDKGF
Description: Stimulation of 6-phosphofructo-1-kinase (PFK), aldolase-coupled spectrophotometric assay. To be noted: stimulation of enzyme; pH 7.3, 30°C, 1 mM ATP, reaction initiated with 0.2 mM fructose-6-phosphate; read-out: PFK ED₅₀. How it is done:
(§1) The novel compounds of this invention were tested for their ability to stimulate the enzyme 6-phosphofructo-1-kinase ("PFK") and for their ability to inhibit the enzyme fructose-1,6-bisphosphatase ("FBP") using the procedures described below.
Effects on the activity of PFK were determined using an aldolase-coupled, spectrophotometric assay. The assay mixture contained: 50 mM N-tris(hydroxymethyl)methyl-2-aminoethanesulfonic acid, hydrochloride ("TES-HCl", pH 7.3); 1mM ethylenediaminetetraacetic acid ("EDTA"); 6 mM magnesium chloride; 2.5 mM dithiothreitol; 0.165 mM nicotinamide adenine dinucleotide ("NADH"); 1mM adenosine triphosphate ("ATP"); 0.04U aldolase; 0.4U triose phosphate isomerase; 1.5U alpha-glycerolphosphate dehydrogenase; 0.1U of purified rat liver 6-phosphofructo-1-kinase; and various concentrations of the test compound, all in a final volume of 1 ml. The mixture was preincubated for 3 minutes at 30°C and then the reaction was initiated with 0.2 mM fructose-6-phosphate. The rate of decrease in absorbance at 340 nm was measured at 30°C with a recording spectrophotometer.

Experiment [2] has as its target T2, partially purified potato tuber 6-phosphofructo-1-kinase (Solanum tuberosum, UniProt P21342+P21343).
T2 construct: 0.1U of partially purified potato tuber; from tissue; host or cells: potato tuber
T2 sequence (P21343 1-569): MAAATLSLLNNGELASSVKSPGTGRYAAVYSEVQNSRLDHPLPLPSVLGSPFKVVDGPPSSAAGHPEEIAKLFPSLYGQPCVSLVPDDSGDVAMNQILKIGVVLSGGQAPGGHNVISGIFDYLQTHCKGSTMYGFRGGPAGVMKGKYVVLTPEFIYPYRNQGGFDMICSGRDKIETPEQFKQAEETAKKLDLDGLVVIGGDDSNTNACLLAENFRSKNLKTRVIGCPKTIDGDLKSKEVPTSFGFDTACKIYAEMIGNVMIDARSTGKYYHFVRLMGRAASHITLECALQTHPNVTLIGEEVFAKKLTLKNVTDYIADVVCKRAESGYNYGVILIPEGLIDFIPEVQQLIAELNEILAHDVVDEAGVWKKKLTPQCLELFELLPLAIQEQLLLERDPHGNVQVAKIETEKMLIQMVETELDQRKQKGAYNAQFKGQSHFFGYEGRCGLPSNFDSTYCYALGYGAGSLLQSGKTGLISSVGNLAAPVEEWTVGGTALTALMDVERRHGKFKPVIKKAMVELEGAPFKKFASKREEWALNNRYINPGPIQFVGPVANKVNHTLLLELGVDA
T2 sequence (P21342 1-616): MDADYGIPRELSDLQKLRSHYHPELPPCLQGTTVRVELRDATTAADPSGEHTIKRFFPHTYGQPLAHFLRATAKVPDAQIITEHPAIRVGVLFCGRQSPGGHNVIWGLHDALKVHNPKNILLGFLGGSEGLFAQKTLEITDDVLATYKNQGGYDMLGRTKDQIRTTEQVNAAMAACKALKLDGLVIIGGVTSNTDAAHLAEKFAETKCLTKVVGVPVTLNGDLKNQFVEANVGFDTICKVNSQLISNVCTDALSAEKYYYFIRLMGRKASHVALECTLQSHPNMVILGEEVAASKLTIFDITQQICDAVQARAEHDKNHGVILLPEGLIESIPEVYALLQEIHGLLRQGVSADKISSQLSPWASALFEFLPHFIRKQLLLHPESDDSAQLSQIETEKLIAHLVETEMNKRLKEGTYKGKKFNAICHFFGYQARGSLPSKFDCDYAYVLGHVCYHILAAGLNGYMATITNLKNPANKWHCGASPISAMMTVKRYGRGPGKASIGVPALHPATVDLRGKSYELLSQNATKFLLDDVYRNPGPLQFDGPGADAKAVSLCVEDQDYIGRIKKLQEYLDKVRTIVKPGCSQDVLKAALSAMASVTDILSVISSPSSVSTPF
Description: Stimulation of pyrophosphate-dependent 6-phosphofructo-1-kinase (PPi-PFK), aldolase-coupled spectrophotometric assay. To be noted: stimulation of enzyme; pH 8.0, 30°C, 1 mM fructose-6-phosphate, reaction initiated with 0.5 mM sodium pyrophosphate; read-out: PPi-PFK ED₅₀. How it is done: The novel compounds of this invention were also tested for their ability to stimulate the enzyme pyrophosphate-dependent 6-phosphofructo-1-kinase ("PPi-PFK"), a growth regulator in plants, using the procedures described below.
Effects on the activity of PPi-PFK were determined using an aldolase-coupled, spectrophotometric assay. The assay mixture contained: 50 mM N-tris(hydroxymethyl)methyl-2-aminoethanesulfonic acid, hydrochloride ("TES-HCl", pH 8.0); 1mM ethylenediaminetetraacetic acid ("EDTA"); 6 mM magnesium chloride; 2.5 mM dithiothreitol; 0.165 mM nicotinamide adenine dinucleotide ("NADH"); 1mM fructose-6-phosphate; 0.04U aldolase; 0.4U triose phosphate isomerase; 1.5U alpha-glycerolphosphate dehydrogenase; 0.1U of partially purified potato tuber 6-phosphofructo-1-kinase; and various concentrations of the test compound, all in a final volume of 1 ml. The mixture was preincubated for 3 minutes at 30°C and then the reaction was initiated with 0.5 mM sodium pyrophosphate. The rate of decrease in absorbance at 340 nm was measured at 30°C with a recording spectrophotometer.

For experiment [3], the target named is T3, purified rat liver FBP (Rattus norvegicus, UniProt P19112).
T3 construct: 0.02U of purified rat liver FBP; from tissue; host or cells: rat liver
T3 sequence (P19112 2-363 limits assumed): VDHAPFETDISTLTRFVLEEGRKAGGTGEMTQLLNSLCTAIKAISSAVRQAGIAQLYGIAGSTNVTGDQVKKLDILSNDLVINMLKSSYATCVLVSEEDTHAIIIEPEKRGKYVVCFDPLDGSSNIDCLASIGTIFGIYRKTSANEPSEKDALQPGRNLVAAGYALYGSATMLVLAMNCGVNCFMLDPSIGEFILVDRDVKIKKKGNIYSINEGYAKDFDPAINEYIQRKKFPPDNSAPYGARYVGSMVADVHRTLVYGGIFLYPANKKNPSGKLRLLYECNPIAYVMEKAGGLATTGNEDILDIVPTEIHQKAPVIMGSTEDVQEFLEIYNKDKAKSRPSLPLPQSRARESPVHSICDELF
The experiment can be described thus: Inhibition of fructose-1,6-bisphosphatase (FBP), spectrophotometric assay. Here is the method:
as §1
Effects on the activity of FBP were determined using a spectrophotometric assay. The assay mixture contained: 100 mM tris(hydroxymethyl)aminomethane, hydrochloride ("TRIS-HCl", pH 7.4); 2.5 mM beta-mercaptoethanol; 2 mM magnesium chloride; 0.05 mM EDTA; 0.2 mM nicotinamide adenine dinucleotide phosphate ("NADP"); 10 U phosphoglucose isomerase; 5 U glucose-6-phosphate dehydrogenase; 0.02U of purified rat liver FBP; and various concentrations of the test compound, all in a final volume of 1 ml. The mixture was preincubated for 3 minutes at 30°C and then the reaction was initiated with 0.02 mM fructose-1,6-bisphosphate. The rate of increase in absorbance at 340 nm was measured at 30°C with a recording spectrophotometer.

[4] abbreviates: inhibition of enzyme, pH 7.4, 30°C, reaction initiated with 0.02 mM fructose-1,6-bisphosphate, read-out: FBP IC₅₀.

`O=P(O)(O)OC[C@@H](O)[C@H]1O[C@H](COP(=O)(O)O)[C@@H](O)[C@@H]1O` [2,5-Anhydro-D-glycero-D-manno-heptitol, 1,7-bis(dihydrogen phosphate)]: in experiment [1], the EC50 came to 2.1 µM.
For `O=P(O)(O)OC[C@H]1O[C@@](CO)(OP(=O)(O)O)[C@@H](O)[C@@H]1O` [Beta-D-fructose-2,6-bisphosphate, reference compound], the EC50 amounted to 0.02 µM in experiment [1] and 0.004 µM in experiment [2]. Moreover, the IC50 in experiment [3] (setting [4]) came to 3 µM.
For `O=P(O)(O)OC[C@H]1O[C@@](OP(=O)(O)O)(C(F)F)[C@@H](O)[C@@H]1O` [1-Deoxy-1,1-difluoro-D-fructofuranose, 2,6-bis(dihydrogen phosphate), α-anomer, disodium salt], the EC50 in experiment [1] is 0.05 µM. The IC50 in experiment [3] (setting [4]) was > 800 µM.
`O=P(O)(O)OC[C@H]1O[C@](OP(=O)(O)O)(C(F)F)[C@@H](O)[C@@H]1O` [1-Deoxy-1,1-difluoro-D-fructofuranose, 2,6-bis(dihydrogen phosphate), β-anomer, tetrasodium salt]: in experiment [2], the EC50 is 0.3 µM.
As to `O=P(O)(O)OC[C@H]1O[C@](CO)(COP(=O)(O)O)[C@@H](O)[C@@H]1O` [2,5-Anhydro-2-C-[(phosphonooxy)methyl]-D-glucitol, 6-(dihydrogen phosphate)], the EC50 in experiment [1] worked out at 2 µM; in experiment [2] it was 6.6 µM.
Turning to `O=P(O)(O)OC[C@H]1O[C@H](COP(=O)(O)O)[C@@H](O)[C@@H]1O` [2,5-Anhydro-D-mannitol, 1,6-bis(dihydrogen phosphate)], in experiment [1], the EC50 stood at 0.26 µM. In experiment [3], the IC50 turned out to be 2 µM.
For the molecule `O=P(O)(O)OC[C@@H]1O[C@H](COP(=O)(O)O)[C@@H](O)[C@@H]1O` [2,5-Anhydro-D-glucitol, 1,6-bis(dihydrogen phosphate)], in experiment [1], the EC50 worked out at 2.2 µM. Also, the IC50 in experiment [3] (setting [4]) is 32 µM.
Take `O=P(O)(O)OCCCC1O[C@H](COP(=O)(O)O)[C@@H](O)[C@@H]1O` (stereo partly drawn) [4,7-Anhydro-2,3-dideoxy-D-gluco-octitol, 1,8-bis(dihydrogen phosphate), and 4,7-Anhydro-2,3-dideoxy-D-manno-octitol, 1,8-bis(dihydrogen phosphate)]: the EC50 in experiment [1] was 12 µM.
As to `O=P(O)(O)OC[C@H]1O[C@@](CO)(COP(=O)(O)O)[C@@H](O)[C@@H]1O` [2,5-Anhydro-2-C-(hydroxymethyl)-D-glucitol, 1,6-bis(dihydrogen phosphate)], the results for the EC50 in experiment [1] and in experiment [2] were 6.3 µM and 0.4 µM, respectively.
As for `O=P(O)(O)OC[C@H]1OC(O)(C(F)F)[C@@H](O)[C@@H]1O` (stereo partly drawn) [1-Deoxy-1,1-difluoro-D-fructofuranose, 6-(dihydrogen phosphate), sodium salt], the EC50 in experiment [1] turned out to be 300 µM; in experiment [2], 1000 µM. In addition, the IC50 in experiment [3] (setting [4]) worked out at 450 µM.
Take `O=P(O)(O)OCC[C@@H]1O[C@H](COP(=O)(O)O)[C@@H](O)[C@@H]1O` [3,6-Anhydro-2-deoxy-D-gluco-heptitol, 1,7-bis(dihydrogen phosphate)]: the EC50 in experiment [1] came out at 4 µM. The IC50 in experiment [3] (setting [4]) is 230 µM.
On the same counts, the results for `O=P(O)(O)OC[C@H]1O[C@](OP(=O)(O)O)(C(F)F)[C@@H](O)[C@@H]1O` [1-Deoxy-1,1-difluoro-D-fructofuranose, 2,6-bis (dihydrogen phosphate), β-anomer, disodium salt] are 0.15 µM and > 800 µM.
The matching figures for `O=P(O)(O)OCC[C@H]1O[C@H](COP(=O)(O)O)[C@@H](O)[C@@H]1O` [3,6-Anhydro-2-deoxy-D-manno-heptitol, 1,7-bis(dihydrogen phosphate)]: 0.56 µM and 50 µM.
Turning to `O=P(O)(O)OC[C@H]1O[C@@](OP(=O)(O)O)(C(F)F)[C@@H](O)[C@@H]1O` [1-Deoxy-1,1-difluoro-D-fructofuranose, 2,6-bis(dihydrogen phosphate), α-anomer, tetrasodium salt], the EC50 in experiment [2] was determined as 15 µM.
`O=P(O)(O)OCC[C@@]1(CO)O[C@H](COP(=O)(O)O)[C@@H](O)[C@@H]1O` [3,6-Anhydro-2-deoxy-3-C-(hydroxymethyl)-D-manno-hepitol, 1,7-bis(dihydrogen phosphate)]: in experiment [1], the EC50 came out at 7.2 µM. Further, in experiment [3] (setting [4]), the IC50 was found to be 100 µM.
